Experiments:
[1] = test system: morphine-exposed mouse pups; test: Neonatal opioid withdrawal syndrome (NOWS): naloxone-precipitated somatic signs in morphine-exposed mouse pups; format: in vivo; conditions: D-CYSee 30 mg/kg s.c. given prior to naloxone 1.0 mg/kg
Description: FIG. 2 illustrates a schematic timeline of an assay of neonatal morphine exposure of female mice for determining neonatal opioid withdrawal syndrome (NOWS). Female mice are implanted with osmotic mini-pumps containing 20 mg/kg/day morphine sulfate and mated. Offspring are injected twice daily with 10 mg/kg morphine for 14 days.
FIG. 4 illustrates a graph showing D-CYSee modulates NOWS. […] D-CYSee (30 mg/kg s.c.) given prior to naloxone (1.0 mg/kg) reduces all somatic signs of withdrawal except for jumping behavior, which is enhanced.

[2] = test system: morphine dependent rats; test: Naloxone-precipitated withdrawal responses in morphine dependent rats; format: in vivo, rat
Description: Rats received a depot subcutaneous injection of morphine (150 mg/kg) with or without continuous infusion of D-CYSee (20 μmol/kg/hour, IV) and one day later the rats received an intraperitoneal injection of naloxone HCl (1.5 mg/kg) to elicit withdrawal responses.

[3] = rats, D-CYSee 20 μmol/kg/hour IV, naloxone HCl 1.5 mg/kg i.p.

What does the source list for `CCOC(=O)[C@H](N)CS` [D-CYSee, D-cysteine ethyl ester]?
body tremors [1]: reduces; jumps (jumping behavior) [1]: enhanced; paw tremors [1]: reduces; wall climbs [1]: reduces; withdrawal responses ([2]; morphine 150 mg/kg depot s.c., D-CYSee 20 μmol/kg/hour IV continuous infusion, naloxone HCl 1.5 mg/kg i.p. one day later): markedly diminishes; change in mean arterial blood pressure [2, 3]: attenuated; circling behavior [2, 3]: attenuated; episodes of apneas [2, 3]: attenuated; episodes of fore-paw licking [2, 3]: attenuated; episodes of sneezing [2, 3]: attenuated; jumping behavior [2, 3]: attenuated; rearing behavior [2, 3]: attenuated

Reference: US20250009706A1, “COMPOSITIONS AND METHODS FOR TREATING OPIOID DEPENDENCE AND WITHDRAWAL” (CASE WESTERN RESERVE UNIVERSITY, priority 2021, published 2025)
